From the NIST ThermoML archive (doi:10.1021/je034087q)

Test: xn = mol fraction of the nth substance listed
Conditions: Fluid (supercritical or subcritical phases)

CC(C)=O [acetone] + O=C=O
Conditions	mass density [kg/m3]
335.15 K, 10350 kPa, x2 = 0.909	583
335.15 K, 10420 kPa, x2 = 0.909	589
335.15 K, 10500 kPa, x2 = 0.909	593
335.15 K, 10590 kPa, x2 = 0.909	599
335.15 K, 10680 kPa, x2 = 0.909	604
335.15 K, 10780 kPa, x2 = 0.909	611
335.15 K, 10890 kPa, x2 = 0.909	616
335.15 K, 11020 kPa, x2 = 0.909	623
335.15 K, 11150 kPa, x2 = 0.909	628
335.15 K, 11280 kPa, x2 = 0.909	635
335.15 K, 11440 kPa, x2 = 0.909	640
335.15 K, 11600 kPa, x2 = 0.909	648
335.15 K, 11790 kPa, x2 = 0.909	653
335.15 K, 12010 kPa, x2 = 0.909	661
335.15 K, 12240 kPa, x2 = 0.909	667
335.15 K, 12460 kPa, x2 = 0.909	675
335.15 K, 12750 kPa, x2 = 0.909	681
335.15 K, 13080 kPa, x2 = 0.909	691
335.15 K, 13400 kPa, x2 = 0.909	697
335.15 K, 13770 kPa, x2 = 0.909	706
335.15 K, 14150 kPa, x2 = 0.909	711
335.15 K, 14600 kPa, x2 = 0.909	721
336.35 K, 9960 kPa, x2 = 0.902	531
336.35 K, 10000 kPa, x2 = 0.902	535
336.35 K, 10030 kPa, x2 = 0.902	538
336.35 K, 10080 kPa, x2 = 0.902	542
336.35 K, 10110 kPa, x2 = 0.902	545
336.35 K, 10150 kPa, x2 = 0.902	547
336.35 K, 10190 kPa, x2 = 0.902	551
336.35 K, 10230 kPa, x2 = 0.902	555
336.35 K, 10260 kPa, x2 = 0.902	558
336.35 K, 10310 kPa, x2 = 0.902	561
336.35 K, 10360 kPa, x2 = 0.902	566
336.35 K, 10390 kPa, x2 = 0.902	569
336.35 K, 10450 kPa, x2 = 0.902	573
336.35 K, 10540 kPa, x2 = 0.902	579
336.35 K, 10610 kPa, x2 = 0.902	583
336.35 K, 10710 kPa, x2 = 0.902	590
336.35 K, 10810 kPa, x2 = 0.902	595
336.35 K, 10910 kPa, x2 = 0.902	602
336.35 K, 11020 kPa, x2 = 0.902	606
336.35 K, 11100 kPa, x2 = 0.902	611
336.35 K, 11200 kPa, x2 = 0.902	616
336.35 K, 11320 kPa, x2 = 0.902	620
336.35 K, 11420 kPa, x2 = 0.902	625
336.35 K, 11570 kPa, x2 = 0.902	631
336.35 K, 11700 kPa, x2 = 0.902	638
336.35 K, 11790 kPa, x2 = 0.902	641
336.35 K, 11950 kPa, x2 = 0.902	645
336.35 K, 12080 kPa, x2 = 0.902	649
336.35 K, 12210 kPa, x2 = 0.902	654
336.35 K, 12400 kPa, x2 = 0.902	659
336.35 K, 12570 kPa, x2 = 0.902	663
336.35 K, 12710 kPa, x2 = 0.902	668
336.35 K, 12940 kPa, x2 = 0.902	673
336.35 K, 13140 kPa, x2 = 0.902	678
336.35 K, 13320 kPa, x2 = 0.902	684
336.35 K, 13580 kPa, x2 = 0.902	688
336.35 K, 13900 kPa, x2 = 0.902	694
336.35 K, 14180 kPa, x2 = 0.902	701
336.35 K, 14450 kPa, x2 = 0.902	706
336.35 K, 14700 kPa, x2 = 0.902	710
336.35 K, 14920 kPa, x2 = 0.902	715
338.15 K, 10080 kPa, x2 = 0.902	511
338.15 K, 10110 kPa, x2 = 0.902	515
338.15 K, 10180 kPa, x2 = 0.902	520
338.15 K, 10230 kPa, x2 = 0.902	524
338.15 K, 10280 kPa, x2 = 0.902	529
338.15 K, 10340 kPa, x2 = 0.902	533
338.15 K, 10380 kPa, x2 = 0.902	538
338.15 K, 10430 kPa, x2 = 0.902	542
338.15 K, 10500 kPa, x2 = 0.902	548
338.15 K, 10560 kPa, x2 = 0.902	552
338.15 K, 10640 kPa, x2 = 0.902	558
338.15 K, 10710 kPa, x2 = 0.902	563
338.15 K, 10780 kPa, x2 = 0.902	569
338.15 K, 10860 kPa, x2 = 0.902	573
338.15 K, 10910 kPa, x2 = 0.902	581
338.15 K, 10980 kPa, x2 = 0.902	584
338.15 K, 11080 kPa, x2 = 0.902	590
338.15 K, 11200 kPa, x2 = 0.902	595
338.15 K, 11280 kPa, x2 = 0.902	600
338.15 K, 11350 kPa, x2 = 0.902	603
338.15 K, 11420 kPa, x2 = 0.902	606
338.15 K, 11510 kPa, x2 = 0.902	610
338.15 K, 11590 kPa, x2 = 0.902	615
338.15 K, 11630 kPa, x2 = 0.902	616
338.15 K, 11710 kPa, x2 = 0.902	619
338.15 K, 11790 kPa, x2 = 0.902	622
338.15 K, 11880 kPa, x2 = 0.902	627
338.15 K, 11950 kPa, x2 = 0.902	629
338.15 K, 12040 kPa, x2 = 0.902	632
338.15 K, 12110 kPa, x2 = 0.902	634
338.15 K, 12240 kPa, x2 = 0.902	640
338.15 K, 12330 kPa, x2 = 0.902	642
338.15 K, 12460 kPa, x2 = 0.902	646
338.15 K, 12570 kPa, x2 = 0.902	651
338.15 K, 12700 kPa, x2 = 0.902	654
338.15 K, 12880 kPa, x2 = 0.902	659
338.15 K, 13010 kPa, x2 = 0.902	663
338.15 K, 13200 kPa, x2 = 0.902	668
338.15 K, 13320 kPa, x2 = 0.902	671
338.15 K, 13480 kPa, x2 = 0.902	675
338.15 K, 13710 kPa, x2 = 0.902	680
338.15 K, 13860 kPa, x2 = 0.902	684
338.15 K, 14080 kPa, x2 = 0.902	689
338.15 K, 14300 kPa, x2 = 0.902	693
338.15 K, 14560 kPa, x2 = 0.902	699
338.15 K, 14780 kPa, x2 = 0.902	700
338.15 K, 15010 kPa, x2 = 0.902	705
